Laboratory results as given in patent publication US12486269B2 (Aconcagua Bio, Inc., priority 2024, dated 2025).

Tests used:
[1] = biological target: T1, COS-7/AMY3 (human calcitonin receptor (CTR) and RAMP3) (Homo sapiens, UniProt O60896+P30988); assay: Amylin Receptor cAMP Assay II; assay type: cell-based; conditions: values marked **: Amylin Receptor cAMP Assay II; COS-7/AMY3 cells, cAMP dynamic 2 kit, 30 min; read-out: Amylin Receptor cAMP Stimulation Activity: EC50
T1 construct: expressed in transfected cells; host or cells: COS-7
Procedure, shortened: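 COS-7 cells stably co-expressing human CTR and RAMP3 (AMY3), 2000 cells/well in HBSS with 20 mM HEPES, 0.5 mM IBMX, 0.1% casein, stimulated with compound for 30 min at 37 °C. cAMP measured by HTRF (665/615 nm), activity normalized between vehicle and maximal control.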

[2] = biological target: T2, human calcitonin receptor (CTR) (Homo sapiens, UniProt P30988); assay: Calcitonin Receptor (CTR) cAMP Assay; assay type: cell-based; conditions: COS7-human CTR Clone #2 stable cell line, cAMP dynamic 2 kit, 30 min; read-out: Calcitonin Receptor cAMP Stimulation Activity: EC50
T2 construct: expressed in transfected cells; host or cells: COS-7 (COS7-human CTR Clone #2)
T2 sequence (P30988 25-474): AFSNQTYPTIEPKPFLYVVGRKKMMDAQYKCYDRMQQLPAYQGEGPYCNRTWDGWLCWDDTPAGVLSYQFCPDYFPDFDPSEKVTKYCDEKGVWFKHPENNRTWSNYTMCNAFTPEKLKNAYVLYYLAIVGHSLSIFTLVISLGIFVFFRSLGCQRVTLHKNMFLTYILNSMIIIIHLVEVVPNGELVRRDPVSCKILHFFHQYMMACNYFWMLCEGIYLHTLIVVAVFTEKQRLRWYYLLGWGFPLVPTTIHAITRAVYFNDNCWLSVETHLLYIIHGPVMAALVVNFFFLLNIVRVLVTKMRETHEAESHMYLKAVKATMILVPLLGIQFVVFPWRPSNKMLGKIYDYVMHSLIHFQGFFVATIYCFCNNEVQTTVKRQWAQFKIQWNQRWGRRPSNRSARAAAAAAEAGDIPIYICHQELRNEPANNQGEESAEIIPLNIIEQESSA
Procedure, shortened: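 COS-7 cells stably expressing human CTR (2000 cells/well) were incubated 30 min at 37 °C with 4-fold serially diluted compound in HBSS/20 mM HEPES/0.5 mM IBMX/0.1% casein. cAMP was detected by HTRF (665/615 nm) after 1 h at RT. % activity was normalised to vehicle and positive controls.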

T1 sequence (O60896 24-148, one chain of several): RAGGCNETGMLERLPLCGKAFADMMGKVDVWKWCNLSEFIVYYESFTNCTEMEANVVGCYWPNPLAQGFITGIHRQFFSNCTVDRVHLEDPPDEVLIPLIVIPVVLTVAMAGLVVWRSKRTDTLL

Compound | EC50 [1] | EC50 [2]
COc1cc2c(cc1F)[C@H](Nc1nccc3cc(-c4c5c(nc(CCc6ccc(F)cc6)c4-c4n[nH]c(=O)o4)[C@@H]4CCCN4C5=O)sc13)CC2 [Compound 257, 5-((S)-4-(7-(((R)-6-fluoro-5-methoxy-2,3-dihydro-1H-inden-1-yl)amino)thieno[2,3-c]pyridin-2-yl)-2-(4-fluorophenethyl)-5-oxo-7,8,9,9a-tetrahydro-5H-pyrido[2,3-a]pyrrolizin-3-yl)-1,3,4-oxadiazol-2(3H)-one] | 10.2 nM | 0.696 nM
COc1cc(F)cc2c1CC[C@H]2Nc1nccc2cc(-c3c4c(nc(CCc5ccc(F)cc5)c3-c3n[nH]c(=O)o3)[C@@H]3CCCN3C4=O)sc12 [Compound 258, 5-((S)-4-(7-(((R)-6-fluoro-4-methoxy-2,3-dihydro-1H-inden-1-yl)amino)thieno[2,3-c]pyridin-2-yl)-2-(4-fluorophenethyl)-5-oxo-7,8,9,9a-tetrahydro-5H-pyrido[2,3-a]pyrrolizin-3-yl)-1,3,4-oxadiazol-2(3H)-one] | 1.91 nM | 0.171 nM
O=C1c2c(nc(CCc3ccc(F)cc3)c(-c3n[nH]c(=O)o3)c2-c2cc3ccnc(N[C@@H]4CCOc5c(F)cc(F)cc54)c3s2)[C@@H]2CCCN12 [Compound 259, 5-((S)-4-(7-(((R)-6,8-difluorochroman-4-yl)amino)thieno[2,3-c]pyridin-2-yl)-2-(4-fluorophenethyl)-5-oxo-7,8,9,9a-tetrahydro-5H-pyrido[2,3-a]pyrrolizin-3-yl)-1,3,4-oxadiazol-2(3H)-one] | 1.52 nM | 0.152 nM
COc1c(F)ccc2c1C[C@@H](F)[C@H]2Nc1nccc2cc(-c3c4c(nc(CCc5ccc(F)cc5)c3-c3n[nH]c(=O)o3)[C@@H]3CCCN3C4=O)sc12 [Compound 260, 5-((S)-4-(7-(((1S,2R)-2,5-difluoro-4-methoxy-2,3-dihydro-1H-inden-1-yl)amino)thieno[2,3-c]pyridin-2-yl)-2-(4-fluorophenethyl)-5-oxo-7,8,9,9a-tetrahydro-5H-pyrido[2,3-a]pyrrolizin-3-yl)-1,3,4-oxadiazol-2(3H)-one] | 1.24 nM | 0.0529 nM
COc1c(F)ccc2c1C[C@H](F)[C@H]2Nc1nccc2cc(-c3c4c(nc(CCc5ccc(F)cc5)c3-c3n[nH]c(=O)o3)[C@@H]3CCCN3C4=O)sc12 [Compound 261, 5-((S)-4-(7-(((1S,2S)-2,5-difluoro-4-methoxy-2,3-dihydro-1H-inden-1-yl)amino)thieno[2,3-c]pyridin-2-yl)-2-(4-fluorophenethyl)-5-oxo-7,8,9,9a-tetrahydro-5H-pyrido[2,3-a]pyrrolizin-3-yl)-1,3,4-oxadiazol-2(3H)-one] | 6.35 nM | 0.807 nM
COc1c(F)ccc2c1CC[C@H]2Nc1nc(C)cc2cc(-c3c4c(nc(CCc5ccc(F)cc5)c3-c3n[nH]c(=O)o3)[C@@H]3COCCN3C4=O)sc12 [Compound 263, (R)-4-(7-(((R)-5-fluoro-4-methoxy-2,3-dihydro-1H-inden-1-yl)amino)-5-methylthieno[2,3-c]pyridin-2-yl)-2-(4-fluorophenethyl)-3-(5-oxo-4,5-dihydro-1,3,4-oxadiazol-2-yl)-7,8,10,10a-tetrahydro-5H-pyrido[2′,3′:3,4]pyrrolo[2,1-c][1,4]oxazin-5-one] | 0.629 nM | 0.0341 nM
COc1nccc2c1CC[C@H]2Nc1nccc2cc(-c3c4c(nc(CCc5ccc(F)cc5)c3-c3n[nH]c(=O)o3)C35CC(CN3C4=O)C5)sc12 [Compound 264, (R)-5-(2-(4-fluorophenethyl)-4-(7-((1-methoxy-6,7-dihydro-5H-cyclopenta[c]pyridin-5-yl)amino)thieno[2,3-c]pyridin-2-yl)-5-oxo-8,9-dihydro-5H,7H-8,9a-methanopyrido[2,3-a]pyrrolizin-3-yl)-1,3,4-oxadiazol-2(3H)-one] | 7.4 nM | 0.247 nM
O=C1c2c(nc(CCc3ccc(F)cc3)c(-c3n[nH]c(=O)o3)c2-c2cc3ccnc(N[C@@H]4CCc5cc(Cl)cnc54)c3s2)C23CC(CN12)C3 [Compound 266, (R)-5-(4-(7-((3-chloro-6,7-dihydro-5H-cyclopenta[b]pyridin-7-yl)amino)thieno[2,3-c]pyridin-2-yl)-2-(4-fluorophenethyl)-5-oxo-8,9-dihydro-5H,7H-8,9a-methanopyrido[2,3-a]pyrrolizin-3-yl)-1,3,4-oxadiazol-2(3H)-one] | 182 nM | 2.75 nM
COc1c(F)ccc2c1CC[C@H]2Nc1ncnc2cc(-c3c4c(nc(CCc5ccc(F)cc5)c3-c3n[nH]c(=O)o3)C35CC(CN3C4=O)C5)sc12 [Compound 268, (R)-5-(4-(4-((5-fluoro-4-methoxy-2,3-dihydro-1H-inden-1-yl)amino)thieno[3,2-d]pyrimidin-6-yl)-2-(4-fluorophenethyl)-5-oxo-8,9-dihydro-5H,7H-8,9a-methanopyrido[2,3-a]pyrrolizin-3-yl)-1,3,4-oxadiazol-2(3H)-one] | 1.07 nM | 0.077 nM
COc1c(F)ccc2c1CC[C@H]2Nc1ccnc2cc(-c3c4c(nc(CCc5ccc(F)cc5)c3-c3n[nH]c(=O)o3)C35CC(CN3C4=O)C5)sc12 [Compound 271, (R)-5-(4-(7-((5-fluoro-4-methoxy-2,3-dihydro-1H-inden-1-yl)amino)thieno[3,2-b]pyridin-2-yl)-2-(4-fluorophenethyl)-5-oxo-8,9-dihydro-5H,7H-8,9a-methanopyrido[2,3-a]pyrrolizin-3-yl)-1,3,4-oxadiazol-2(3H)-one] | 3.13 nM | 0.178 nM

The next lines start with the values.

EC50 [1] | EC50 [2] | Compound
12.8 nM | 0.33 nM | COc1c(Cl)cc2c(c1F)CC[C@H]2Nc1nccc2cc(-c3c4c(nc(CCc5ccc(F)cc5)c3-c3n[nH]c(=O)o3)[C@@H]3CCCN3C4=O)sc12 [Compound 256, 5-[(9aS)-4-[7-[[(1R)-6-chloro-4-fluoro-5-methoxy-indan-1-yl]amino]thieno[2,3-c]pyridin-2-yl]-2-[2-(4-fluorophenyl)ethyl]-5-oxo-7,8,9,9a-tetrahydropyrido[2,3-a]pyrrolizin-3-yl]-3H-1,3,4-oxadiazol-2-one]
2.81 nM | 0.0963 nM | COc1c(F)ccc2c1CC[C@H]2Nc1nccc2cc(-c3c4c(nc(CCc5ccc(F)cc5)c3-c3n[nH]c(=O)o3)[C@@H]3COCCN3C4=O)sc12 [Compound 262, (R)-4-(7-(((R)-5-fluoro-4-methoxy-2,3-dihydro-1H-inden-1-yl)amino)thieno[2,3-c]pyridin-2-yl)-2-(4-fluorophenethyl)-3-(5-oxo-4,5-dihydro-1,3,4-oxadiazol-2-yl)-7,8,10,10a-tetrahydro-5H-pyrido[2′,3′:3,4]pyrrolo[2,1-c][1,4]oxazin-5-one]
7.34 nM | 0.174 nM | Cc1cc2cc(-c3c4c(nc(CCc5ccc(F)cc5)c3-c3n[nH]c(=O)o3)C35CC(CN3C4=O)C5)sc2c(N[C@@H]2CCc3c(Cl)cncc32)n1 [Compound 265, (R)-5-(4-(7-((4-chloro-6,7-dihydro-5H-cyclopenta[c]pyridin-7-yl)amino)-5-methylthieno[2,3-c]pyridin-2-yl)-2-(4-fluorophenethyl)-5-oxo-8,9-dihydro-5H,7H-8,9a-methanopyrido[2,3-a]pyrrolizin-3-yl)-1,3,4-oxadiazol-2(3H)-one]
14.6 nM | 0.738 nM | COc1c(F)ccc2c1CC[C@H]2Nc1cccc2nc(-c3c4c(nc(CCc5ccc(F)cc5)c3-c3n[nH]c(=O)o3)C35CC(CN3C4=O)C5)sc12 [Compound 267, (R)-5-(4-(7-((5-fluoro-4-methoxy-2,3-dihydro-1H-inden-1-yl)amino)benzo[d]thiazol-2-yl)-2-(4-fluorophenethyl)-5-oxo-8,9-dihydro-5H,7H-8,9a-methanopyrido[2,3-a]pyrrolizin-3-yl)-1,3,4-oxadiazol-2(3H)-one]
1.78 nM | 0.0975 nM | COc1c(F)ccc2c1CC[C@H]2Nc1nccc2sc(-c3c4c(nc(CCc5ccc(F)cc5)c3-c3n[nH]c(=O)o3)C35CC(CN3C4=O)C5)cc12 [Compound 269, (R)-5-(4-(4-((5-fluoro-4-methoxy-2,3-dihydro-1H-inden-1-yl)amino)thieno[3,2-c]pyridin-2-yl)-2-(4-fluorophenethyl)-5-oxo-8,9-dihydro-5H,7H-8,9a-methanopyrido[2,3-a]pyrrolizin-3-yl)-1,3,4-oxadiazol-2(3H)-one]
1.6 nM | 0.148 nM | COc1c(F)ccc2c1CC[C@H]2Nc1ncnc2sc(-c3c4c(nc(CCc5ccc(F)cc5)c3-c3n[nH]c(=O)o3)C35CC(CN3C4=O)C5)cc12 [Compound 270, (R)-5-(4-(4-((5-fluoro-4-methoxy-2,3-dihydro-1H-inden-1-yl)amino)thieno[2,3-d]pyrimidin-6-yl)-2-(4-fluorophenethyl)-5-oxo-8,9-dihydro-5H,7H-8,9a-methanopyrido[2,3-a]pyrrolizin-3-yl)-1,3,4-oxadiazol-2(3H)-one]
